Several values for one entry are separate records, joined by “and”; a condition that tells them apart may be missing. Identical values can stand only once.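 Growth conditions: 96-well plates. Treatment: test compound, 48 hours, 5 concentrations. Analysis: linear interpolation between bracketing concentrations; unreached endpoints set to highest concentration. GI50 marks 50% less growth. The concentration for full growth arrest is given as TGI.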
What was measured:
Assay in all cases: growth of human tumour cells (NCI), 48 h
NCI/ADR-RES ovarian = tested on: NCI/ADR-RES ovarian
SW-620 colon = tested on: SW-620 colon
OVCAR-8 ovarian = tested on: OVCAR-8 ovarian
COLO 205 colon = tested on: COLO 205 colon
NCI-H23 lung = tested on: NCI-H23 lung
NCI-H226 lung = tested on: NCI-H226 lung
DU-145 prostate = tested on: DU-145 prostate
PC-3 prostate = tested on: PC-3 prostate
HCT-116 colon = tested on: HCT-116 colon
MALME-3M melanoma = tested on: MALME-3M melanoma

SMILES	GI50 (NCI/ADR-RES ovarian)	TGI (NCI/ADR-RES ovarian)	GI50 (SW-620 colon)	TGI (SW-620 colon)	GI50 (OVCAR-8 ovarian)	TGI (OVCAR-8 ovarian)	GI50 (COLO 205 colon)	TGI (COLO 205 colon)	GI50 (NCI-H23 lung)	TGI (NCI-H23 lung)	GI50 (NCI-H226 lung)	TGI (NCI-H226 lung)	GI50 (DU-145 prostate)	TGI (DU-145 prostate)	GI50 (PC-3 prostate)	TGI (PC-3 prostate)	GI50 (HCT-116 colon)	TGI (HCT-116 colon)	GI50 (MALME-3M melanoma)	TGI (MALME-3M melanoma)
Cn1c(Cl)c(/C=C2/C(=O)Nc3ccccc32)c2ccccc21	0.371 µM	3.57 µM	0.299 µM	14.7 µM	1.7 µM	> 37.1 µM	0.705 µM	6.64 µM	1.02 µM	8.89 µM	1.83 µM	21.9 µM	1.4 µM	15.8 µM	0.859 µM	> 33.7 µM	0.306 µM	12.3 µM	0.179 µM	15.3 µM
Cc1cc(Cl)ccc1OCC(=O)Nc1nc2c(Cl)cccc2s1	23.8 µM	> 100 µM	> 100 µM	> 100 µM	15.9 µM	29.4 µM	> 100 µM	> 100 µM	73 µM	> 100 µM	53.3 µM	> 100 µM	26.4 µM	> 100 µM	8.89 µM	> 100 µM			> 100 µM	> 100 µM
CC(C)CNc1nc(-c2ccccc2Cl)nc2ccccc12	17.8 µM	42.6 µM			17.2 µM	38.9 µM	20.3 µM	50 µM	16.2 µM	31 µM	17.7 µM	35 µM	16.1 µM	30.5 µM	18.5 µM	46.4 µM	16.6 µM	30.2 µM	12.4 µM	25.9 µM
CN(c1ccc(NC(=O)Nc2c(Cl)cccc2Cl)cc1)c1ccnc(Nc2cccc(CS(C)(=O)=O)c2)n1	5.49 µM	> 25 µM	1.62 µM	> 16.8 µM	2.31 µM	6.82 µM	0.16 µM	11.9 µM	2.68 µM	18.5 µM	4.67 µM	> 20.2 µM	3.07 µM	6.72 µM	1.56 µM	8.6 µM	1.3 µM	7.45 µM	1.53 µM	> 14.4 µM
COc1ccc2c(c1)C(=O)CCc1cc(OC)c(OC)c(OC)c1-2	< 0.01 µM		< 0.01 µM	> 100 µM	< 0.01 µM		< 0.01 µM	16.9 µM	< 0.01 µM	0.0617 µM	< 0.01 µM		< 0.01 µM		< 0.01 µM	> 100 µM	< 0.01 µM	> 100 µM		
CCN1C(=O)/C(=C/c2c(Cl)[nH]c3cc(C)c(OC)cc23)c2ccccc21	4.65 µM	65 µM	3.67 µM	> 100 µM	4.29 µM	> 100 µM	2.77 µM	15.4 µM	5.37 µM	> 100 µM	32.2 µM	> 100 µM	3.29 µM	> 100 µM	3.91 µM	> 100 µM	3.78 µM	16.8 µM	14.9 µM	70.6 µM
CN(C)CCC(=O)N1C/C(=C\c2ccc(Cl)c(Cl)c2)C(=O)/C(=C/c2ccc(Cl)c(Cl)c2)C1		1.06 µM		0.349 µM		0.752 µM		0.636 µM		1.5 µM		1.86 µM		0.867 µM		0.398 µM		0.331 µM		1.51 µM
CS(=O)(=O)CCNCc1coc(-c2ccc3ncnc(Nc4ccc(OCc5ccccc5)cc4)c3c2)c1	9.47 µM	> 25 µM	4.34 µM	8.34 µM	8.66 µM	> 25 µM	4.78 µM	9.84 µM	9.18 µM	> 25 µM	> 12.8 µM	> 25 µM	3.75 µM	> 25 µM	8.95 µM	> 25 µM	3.88 µM	7.53 µM	4.71 µM	9.57 µM
COc1cccc2c1C(=N)c1c(O)c3c(c(O)c1C2=O)C[C@@](O)(C(C)=O)C[C@@H]3O[C@H]1C[C@H](N)[C@H](O)[C@H](C)O1	45.3 µM	> 100 µM		3.65 µM	0.327 µM	1.95 µM		3.16 µM	0.233 µM	1.16 µM	0.167 µM	1.4 µM	0.292 µM	1.72 µM	1.3 µM	9.33 µM	0.277 µM	6.6 µM	0.391 µM	3.24 µM
O=C1C=CC(=O)C2C1C1(Cl)C(Cl)=C(Cl)C2(Cl)C1(Cl)Cl (configuration not stated)	3.75 µM	> 100 µM	3.94 µM	15.1 µM	10.1 µM	48.6 µM	11.5 µM	27.2 µM	4.85 µM	26.3 µM	10.8 µM	49.1 µM	3.73 µM	15.6 µM	2.73 µM	20 µM	3.51 µM	14.6 µM	3.23 µM	15.8 µM
Cc1ccc(C)c(NC(=O)CC2Sc3ccccc3NC2=O)c1 (configuration not stated)		> 74.3 µM	26.2 µM and > 77.1 µM	> 100 µM		27 µM and 45.3 µM		> 100 µM	17.8 µM and 47.3 µM	38.4 µM and > 96.2 µM	15.9 µM and 37.2 µM	28.6 µM and 67.2 µM		> 100 µM		> 100 µM	15.9 µM and 36.9 µM	25.2 µM and > 94.5 µM	27.8 µM and 64.8 µM	48.2 µM and > 100 µM
Nc1n[nH]c2cccc(C#Cc3cccc(NC(=O)c4cccc(C(F)(F)F)c4)c3)c12	3.91 µM	23.2 µM	3.22 µM	19.5 µM	4.82 µM	16.6 µM	3.65 µM	15.1 µM	2.86 µM	15.8 µM	0.86 µM	20.3 µM	5.69 µM	17.6 µM	3.96 µM	14.6 µM	0.855 µM	4.61 µM	0.446 µM	10.9 µM
CCCCCCCCCCCCCCCCCCOC[C@H](COP(=O)(O)O[C@H]1[C@H](O)[C@@H](O)[C@H](O)C[C@H]1O)OC	> 100 µM and 18.3 µM	> 100 µM and 33.5 µM		> 100 µM and 39.3 µM	> 100 µM and 16.9 µM	> 100 µM and 31.8 µM	26.6 µM and 11 µM	> 100 µM and 24.2 µM	> 100 µM and 19.3 µM	> 100 µM and 35 µM	> 100 µM and 24 µM	> 100 µM and 44.5 µM	> 100 µM and 17.3 µM	> 100 µM and 34.5 µM	7.44 µM and 2.94 µM	43.3 µM and 14.1 µM	> 100 µM and 15.8 µM	> 100 µM and 30.7 µM	> 100 µM and 18.3 µM	> 100 µM and 33.9 µM
Cc1cn(-c2cc(NC(=O)c3cccc(C#Cc4cccc5[nH]nc(N)c45)c3)cc(C(F)(F)F)c2)cn1	13.5 µM	> 100 µM	4.22 µM	> 100 µM	4.99 µM	36.3 µM	2.45 µM	15.8 µM	4.61 µM	> 100 µM	0.771 µM	61.2 µM	10.3 µM	40.7 µM	6.46 µM	26.7 µM	2.62 µM	18.8 µM	1.81 µM	10.9 µM
C=C(C)[C@@H]1CC[C@]2(COCCCN)CC[C@]3(C)[C@H](CC[C@@H]4[C@@](C)(CCCNCCCN)[C@H](C(=C)C)CC[C@]43C)[C@@H]12	1.88 µM	3.63 µM	1.84 µM	3.79 µM	1.91 µM	3.61 µM	1.78 µM	3.48 µM	1.79 µM	3.63 µM			1.92 µM	3.43 µM	1.7 µM	3.25 µM	1.45 µM	2.84 µM	1.66 µM	3.12 µM
CC(C)C(O)(C(C)C)C(C)C		> 100 µM				> 100 µM		> 100 µM		> 100 µM		> 100 µM		> 100 µM		> 100 µM		> 100 µM		> 100 µM
O=C(O)CCCc1ccc2ccc3ccccc3c2c1		> 100 µM				> 100 µM		> 100 µM		> 100 µM		> 100 µM		> 100 µM		> 100 µM		> 100 µM		> 100 µM
COc1cc(C2c3cc4c(cc3OC(C)(N3CCCC3)C2C)OCO4)cc(OC)c1OC (configuration not stated)		0.522 µM		> 100 µM				0.528 µM		6.32 µM		2.05 µM		2.57 µM		> 100 µM		16.5 µM		> 55.2 µM
NC(CSC(c1ccccc1)(c1ccccc1)c1ccccc1)C(=O)NCC(=O)O (configuration not stated)	26.5 µM	> 100 µM	3.59 µM	> 100 µM	5.35 µM	> 100 µM	3.39 µM	> 100 µM			23.4 µM	> 100 µM	18.9 µM	> 100 µM	5.25 µM	> 100 µM	3.97 µM	> 100 µM	5.3 µM	> 100 µM
CCCOC(=O)N[C@H]1CCc2c(Cl)c(OC)c(OC)c(OC)c2-c2ccc(SC)c(=O)cc21	0.0269 µM	21.6 µM	< 0.01 µM	> 52.5 µM	< 0.0122 µM	> 100 µM			< 0.01 µM	32.5 µM	< 0.01 µM	12.5 µM	< 0.01 µM	0.0575 µM	< 0.01 µM	> 100 µM	< 0.01 µM	12.7 µM	< 0.01 µM	17.1 µM
C=C(C)C1CC2(C)C(C)CC(O)CC2C(OC(=O)C=C(C)C)C1O (configuration not stated)		> 100 µM				> 100 µM		32.4 µM		> 100 µM		46.2 µM		> 100 µM		> 100 µM		> 100 µM		> 100 µM

From PubChem BioAssay (NCI)
